# The METLIN SMRT retention time set (Domingo-Almenara et al. 2019)
# Assay: gradient 5% acetonitrile 3 min, to 50% in 2 min, to 85% in 15 min, held 3 min, 100 µL/min
# Conditions: column: Zorbax Extend-C18 2.1 x 50 mm; eluents: water / acetonitrile, 0.1% formic acid
# Procedure, shortened: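 In both positive and negative ionization mode, a quadrupole time-of-flight mass spectrometer coupled to HPLC analyzed pure standards run in mixtures of ~100 molecules. The Zorbax Extend-C18 column (2.1 × 50 mm, 1.8 μm) was operated at 100 μL/min with water and acetonitrile, each containing 0.1% formic acid. The dead volume was 40 μL and the dwell volume 900 μL. Retention time came from adduct peaks that were computationally picked and individually inspected by hand.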
row,RP-LC retention time [s],Compound
1,605,CN1CCN(CCNC(=O)CCCN2C(=O)C(c3ccccc3)Oc3cccnc32)CC1 (centres undefined)
2,771,COc1ccccc1C1(CNC(=O)NC2CCCCC2)CCOCC1
3,712,O=C(Nc1nnc(C2CC(=O)N(c3ccc(F)cc3)C2)o1)c1ccccc1Cl (centres undefined)
4,1010,CC(C)c1noc(C2(NC(=O)c3ccc(F)cc3)CCCCC2)n1
5,654,CC(C)CCN(CC(=O)N1CCNCC1)C(=O)c1cccc(Br)c1
6,719,COc1ccc(CNC(=O)CN2C(=O)NC3(CCCCC3)C2=O)cc1
7,815,O=C(Cn1cccc(-c2nc(-c3ccccc3)no2)c1=O)Nc1ccc2c(c1)OCO2
8,592,CN(C)CCCNC(=O)Cn1c(=O)n(-c2ccccc2)c2ncccc21
9,774,CC(=O)N1CCCSc2ccc(S(=O)(=O)N3CCCC3)cc21
10,663,O=C(Nc1cc(-c2ccncc2)no1)c1ccccc1
11,858,COc1cccc(CNC(=O)C2(C)CCCN(C(=O)Nc3ccc(F)cc3)C2)c1 (centres undefined)
12,649,Cc1ccc(NC(=O)N(CCc2cccs2)Cc2cccnc2)cc1C
13,568,O=C(Cn1cnc(-c2ccc(Cl)cc2)cc1=O)NCc1cccnc1
14,1020,O=C(CCC1CCCCC1)Nc1nc(-c2ccc3c(c2)NC(=O)CO3)cs1
15,869,CCn1cc(S(=O)(=O)Nc2ccc(C)cc2F)c2cccnc21
16,839,O=C(c1ccc[nH]1)N1CCN(C(=O)c2nnn3c2COC(c2ccc(Cl)cc2)C3)CC1 (centres undefined)
17,943,Cc1ccc(-c2noc(C3CC(=O)N(c4ccc5c(c4)OCCO5)C3)n2)cc1 (centres undefined)
18,956,COCCCNC(=O)c1ccc(Oc2nccnc2N2CCC(C)CC2)cc1

row,RP-LC retention time [s],Compound
1,887,CCNC(=O)c1ccc2c(c1)CCCN2S(=O)(=O)c1ccc(Cl)cc1
2,708,CCCNC(=O)N1CCC2(CC1)C(=O)N(C)c1ccccc12
3,965,Cc1ccc(C(=O)COC(=O)c2ccc3nc(C)c(C)nc3c2)cc1
4,1330,Cc1cc(C)n(-c2ncnc3c2cnn3Cc2ccccc2Cl)n1
5,643,COc1ccc(-c2cn3cccnc3n2)cc1NC(=O)c1cc(OC)c(OC)c(OC)c1
6,948,O=C(Nc1cc(F)ccc1F)N1CCC(CCNC(=O)C2(c3ccccc3)CC2)CC1
7,892,Cc1nc(C2CN(S(=O)(=O)c3ccccc3C(F)(F)F)CC23CCOCC3)no1 (centres undefined)
8,622,CCOc1cc(=O)c(C(N)=O)nn1-c1ccc(F)cc1
9,1110,O=C(Cc1ccc(Cl)cc1)NCc1nc(-c2ccc3oc(-c4ccccc4)nc3c2)no1
10,909,Cc1cc(-c2nnc(-c3ccco3)o2)c(C)n1CC(=O)Nc1ccc(F)c(F)c1
11,683,Cc1nn(C2CCS(=O)(=O)C2)c2nc(-c3ccco3)cc(C(=O)NCC3CCCO3)c12 (centres undefined)
12,662,COc1cc(NC(=O)CCc2c(C)nn3cnnc3c2C)cc(OC)c1
13,593,O=C(NCc1ccccn1)c1ccc(NC(=O)C2CC2)cc1N1CCCCCC1
14,562,O=C(NCCCN1CCCCC1)c1csc(-c2ccc(N3CCCC3)nc2)n1
15,814,O=C1COc2ccc(S(=O)(=O)N3CCC(C(=O)NC4CCCc5ccccc54)CC3)cc2N1 (centres undefined)
16,843,CCN1C(=O)c2ccccc2Oc2ccc(C(=O)NCc3ccco3)cc21
17,652,Cc1nnc(C2CCCN(C(=O)c3ccccc3Cl)C2)s1 (centres undefined)
18,652,CCc1nc2c(c(=O)n1CC(=O)Nc1cccc(OC)c1)CN(Cc1ccccc1)CC2

# Continued, compound first:
row,Compound,RP-LC retention time [s]
1,COc1ccccc1-c1noc(C2CCCN2C(=O)c2ccc(C#N)cc2F)n1 (centres undefined),839
2,CC(C)Oc1ccc(-c2noc(Cc3nnc(-c4ccc(F)cc4)o3)n2)cc1,1110
3,COc1ccccc1-c1noc(C2CCCN2C(=O)Nc2ccc(F)c(Cl)c2)n1 (centres undefined),942
4,COC(=O)C1=CN(c2ccc(F)cc2C)c2cc(F)ccc2S1(=O)=O,895
5,COc1ccc(N2C(=O)CCC(C(=O)N3CCOCC3)C2c2ccc(OC)c(OC)c2)cc1 (centres undefined),619
6,Cc1cnc(C(=O)NC2C[C@H]3CC[C@@H](C2)N3C(=O)c2ccoc2)cn1 (some centres undefined),601
7,CCCn1ccc2sc(C)c(C(=O)NCc3cccc(Cl)c3)c2c1=O,990
8,O=C(c1cc(-c2ccncc2)n[nH]1)N1CCC(C(=O)N2CCN(c3ccc(F)cc3)CC2)CC1,611
9,Cc1ccc(NS(=O)(=O)c2ccc(-c3c(C)noc3C)cc2)cc1C,996
10,O=C1CCN(S(=O)(=O)c2ccccc2)CCCN(C(=O)Nc2ccc3c(c2)OCCO3)CCN1,701
11,CCCCN1CCN(C(=O)c2cc(NC(=O)C3CCC3)cc3nc(C)ccc23)CC1,551
12,COc1ccc(NC(=O)C2CCN(S(=O)(=O)c3cc(C(=O)N(C)C)cs3)CC2)cc1,730
13,O=C(NCc1ccco1)Nc1cccc([N+](=O)[O-])c1,846
14,O=C(NC1CCCCCC1)C1CCN(c2nc3ccccc3nc2C(F)(F)F)CC1,1200
15,O=c1c2nnc(SCc3ccc(F)cc3)n2ccn1-c1ccc(F)cc1,812
16,COc1ccc(C2=C(C)C(N3CCC(C(=O)N(C)Cc4ccco4)CC3)=NS2(=O)=O)cc1,815
17,COc1ccc2c(c1)C1(CCN(C(=O)c3ccc(C#N)cc3)C1)C(=O)N2C (centres undefined),735
18,CCc1nc2cc3c(cc2n1CC(=O)Nc1cccc(OC)c1)OCCO3,660
19,COC(=O)c1cccc(C(=O)Nc2ccc(F)cc2Cl)n1,993
20,CC(CCNC(=O)C1CCN(Cc2cn(C)c3ccc(Cl)cc23)CC1)N1CCCCCC1 (centres undefined),569
21,CCCc1nc(NCc2ccccn2)ncc1C(=O)O,571
22,CC(C)Cn1c(=O)c(N2CCN(C(=O)c3ccco3)CC2)nc2ccncc21,555
23,O=C(CSC1=Nc2ccccc2N=C(c2ccc(F)cc2)C1)NC1CCCC1,1130
24,O=S(=O)(NCCc1c[nH]c2ncccc12)c1ccc(Br)s1,673
25,COCCN(CC(=O)N1CCc2sccc2C1COc1ccc(Cl)cc1)C(=O)COC (centres undefined),839
26,O=C(NCC1CN(c2ccccc2)C(=O)O1)Nc1ccccc1Cl (centres undefined),776
27,Cn1nc(C2CCN(C(=O)c3ccc4ccccc4n3)CC2)c2c1CCOC2,669

row,Compound,RP-LC retention time [s]
1,CN(CCc1noc(-c2ccccc2)n1)C(=O)CSc1ccccc1,959
2,CC(C)C(=O)N1CCCn2nc(-c3cccnc3)cc2C1,579
3,COc1cccc(-c2cc(C(N)=O)c3ccccc3n2)c1,760
4,O=C(NCc1ccc(F)cc1)C1CCN(S(=O)(=O)c2cc(C(=O)N3CCOCC3)cs2)CC1,739
5,Cc1ccc(CC(=O)Nc2ccc3c(c2)CCC(=O)N3)cc1,708
6,COc1ccc(Cl)cc1S(=O)(=O)N1CCC(c2cc3n(n2)CCCNC3=O)CC1,722
7,CN(C)C(=O)N1CC(c2noc(-c3cccnc3)n2)C2(CCOCC2)C1 (centres undefined),634
8,CCC(=O)N1CCc2cc(C(=O)NCCC3=CCCCC3)ccc21,891
9,CCN1CCN(c2cc(C)c3cc(NC(=S)NCc4ccccc4OC)ccc3n2)CC1,605
10,CSc1ccc(-c2nc3c(C)cccn3c2NC2CCCCC2)cc1,868
11,CCOC(=O)Nc1nc2c(s1)CN(S(=O)(=O)N(C)C)CC2,670
12,COc1ccc(-c2nc(-c3cn(Cc4ccc(C)cc4)nn3)no2)cc1OC,961
13,Cc1ccc(-c2cc3c(N4CCCC(C(=O)NC5CCCCC5)C4)nccn3n2)c(C)c1 (centres undefined),1010
14,CC(C)[C@@H]1NC(=O)[C@H](Cc2ccccc2)NC(=O)[C@@H](CC(=O)O)NC(=O)CNC(=O)[C@H](CCCN=C(N)N)NC1=O,624
15,CCOc1ccccc1NC(=O)c1csc2c1CCC(C)C2 (centres undefined),1320
16,CCc1nc2cc(-c3noc(CCc4ccc(OC)cc4)n3)ccc2o1,1130
17,CCn1cc(-c2nc(CC(=O)NCc3cccc(C)c3)cs2)c2cccnc21,892
18,CCOC(=O)C1CCCN(C(=O)Cc2c(C(=O)O)c(C)cn2CC)C1 (centres undefined),727
19,COc1ccccc1NC(=O)N1CCC(c2cc(N)on2)CC1,678
20,CCCC[C@H]1C(=O)O[C@H](C)[C@H](NC(=O)c2cccc(NC=O)c2OC)C(=O)O[C@@H](C)[C@@H]1OC(=O)CC(C)C,1190
21,CC(=O)Nc1ccc(C)cc1S(=O)(=O)N1CCC2(CC1)Nc1ccc(C)c(C)c1-n1cccc12,1070
22,CCn1nccc1C(=O)N1C[C@@H](CO)[C@H](NC(C)=O)C1,514
23,CCN1c2cc(F)ccc2C(=O)NC12CCN(C(=O)c1ccccc1)CC2,742
24,O=C(NCC1CCN(c2ncccn2)CC1)C(=O)NCC(F)(F)F,626
25,CCCNC(=O)c1cc(-c2ccncc2)cn1Cc1ccccc1C,690
26,CS(=O)(=O)N1CCC(C(=O)Nc2ccccc2F)Oc2ccc(Cl)cc21 (centres undefined),960
